Experimental data reported in the supplement of paper PMC10307832.

Experiments:
Assay in all cases: relative viability (nuclei count vs DMSO), 5 days (fraction); higher = more cells survive
[1] = compound: NCC(=O)Nc1ccc(-n2nc(C(F)(F)F)cc2-c2ccc3c(ccc4ccccc43)c2)cc1 + COc1cc2c(Oc3ccc(NC(=O)C4(C(=O)Nc5ccc(F)cc5)CC4)cc3F)ccnc2cc1OCCCN1CCOCC1 [Foretinib] (partner 0.25 µM)
Method in brief: (§1)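 The day after seeding in 1536-well plates, lung cancer cell lines were treated by pin tool with a single drug, or with a fixed anchor-drug dose together with five library-drug doses (not always all listed) in √10 steps. After 5 days, a combined fix-and-stain solution (final 0.05% Triton X-100, 1% formaldehyde, 1 ug/ml Hoechst) was added. Nuclei counted on 4× images gave relative viability as treated counts over vehicle counts, reported as the median of duplicate plates.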

kb NB 142-70 + Dasatinib = compound: C1CSC2=C(C(=O)N1)SC3=C2C=C(C=C3)O [kb NB 142-70] + Cc1nc(Nc2ncc(C(=O)Nc3c(C)cccc3Cl)s2)cc(N2CCN(CCO)CC2)n1 [Dasatinib] (partner 0.075 µM)
Method in brief: as §1

[2] = compound: C1CSC2=C(C(=O)N1)SC3=C2C=C(C=C3)O [kb NB 142-70] + C[C@@H](Oc1cc(-c2cnn(C3CCNCC3)c2)cnc1N)c1c(Cl)ccc(F)c1Cl [Crizotinib] (partner 1 µM)
Method in brief: as §1

kb NB 142-70 + OSI-027 = compound: C1CSC2=C(C(=O)N1)SC3=C2C=C(C=C3)O [kb NB 142-70] + COc1cccc2cc(-c3nc([C@H]4CC[C@H](C(=O)O)CC4)n4ncnc(N)c34)[nH]c12 [OSI-027] (partner 0.5 µM)
Method in brief: as §1

[3] = compound: NCC(=O)Nc1ccc(-n2nc(C(F)(F)F)cc2-c2ccc3c(ccc4ccccc43)c2)cc1 + CC(=O)Nc1cccc(-n2c(=O)n(C3CC3)c(=O)c3c(Nc4ccc(I)cc4F)n(C)c(=O)c(C)c32)c1 [Trametinib] (partner 0.02 µM)
Method in brief: as §1

Cell Line | relative viability ([1]; first compound 0.02 µM) | relative viability ([1]; first compound 0.06325 µM) | relative viability ([1]; first compound 0.2 µM) | relative viability ([1]; first compound 0.6325 µM) | relative viability ([1]; first compound 2 µM) | relative viability (kb NB 142-70 + Dasatinib; first compound 0.1 µM) | relative viability (kb NB 142-70 + Dasatinib; first compound 1 µM) | relative viability (kb NB 142-70 + Dasatinib; first compound 3.162 µM) | relative viability ([2]; first compound 0.1 µM) | relative viability ([2]; first compound 1 µM) | relative viability ([2]; first compound 3.162 µM) | relative viability (kb NB 142-70 + OSI-027; first compound 0.1 µM) | relative viability (kb NB 142-70 + OSI-027; first compound 1 µM) | relative viability (kb NB 142-70 + OSI-027; first compound 3.162 µM) | relative viability ([3]; first compound 0.02 µM) | relative viability ([3]; first compound 0.06325 µM) | relative viability ([3]; first compound 0.2 µM) | relative viability ([3]; first compound 0.6325 µM) | relative viability ([3]; first compound 2 µM)
NCI-H1975 | 1.03 | 0.94 | 1.08 | 1 | 0.984 | 0.395 | 0.421 | 0.364 | 0.899 | 0.959 | 0.842 | 0.808 | 0.741 | 0.597 | 0.399 | 0.39 | 0.405 | 0.32 | 0.284
CAL-12T | 1.28 | 1.29 | 1.15 | 1.14 | 1.12 | 0.408 | 0.375 | 0.414 | 0.605 | 0.802 | 0.611 | 0.857 | 0.719 | 0.444 | 0.304 | 0.401 | 0.394 | 0.339 | 0.362
NCI-H1623 | 1.02 | 0.935 | 0.77 | 0.84 | 0.923 | 0.552 | 0.558 | 0.428 |  |  |  | 0.399 | 0.375 | 0.404 |  |  |  |  | 
HCC-44 |  |  |  |  |  |  |  |  | 0.777 | 0.883 | 0.907 | 0.701 | 0.439 | 0.685 | 0.792 | 1.1 | 1.05 | 1.11 | 1.02
EKVX | 0.905 | 1.05 | 0.602 | 0.77 | 0.626 | 0.559 | 0.289 | 0.729 | 0.884 | 1.04 | 1.19 | 0.707 | 0.675 | 0.788 | 0.408 | 0.356 | 0.428 | 0.366 | 0.369
NCI-H1651 | 0.758 | 0.823 | 0.805 | 0.789 | 0.803 | 0.438 | 0.44 | 0.174 | 0.908 | 0.842 | 0.879 | 0.725 | 0.657 | 0.471 | 0.804 | 0.815 | 0.858 | 0.798 | 0.851
NCI-H1944 | 0.795 | 0.841 | 0.827 | 0.888 | 1.01 | 0.207 | 0.243 | 0.201 | 1.02 | 1.31 | 1.23 | 0.386 | 0.443 | 0.426 | 0.429 | 0.408 | 0.437 | 0.413 | 0.403
NCI-H1703 | 0.32 | 0.289 | 0.412 | 0.323 | 0.34 |  |  |  | 0.681 | 0.866 | 0.489 |  |  |  |  |  |  |  | 
Calu-6 | 0.843 | 0.87 | 0.857 | 0.896 | 0.891 |  |  |  | 0.748 | 0.839 | 0.384 |  |  |  |  |  |  |  | 
EBC-1 | 0.0952 | 0.0845 | 0.105 | 0.0991 | 0.0847 |  |  |  | 0.196 | 0.209 | 0.155 |  |  |  |  |  |  |  | 
SW 1573 | 0.986 | 0.867 | 0.87 | 0.895 | 0.905 | 0.491 | 0.458 | 0.188 | 0.832 | 0.815 | 0.526 | 0.618 | 0.47 | 0.266 | 0.551 | 0.436 | 0.637 | 0.565 | 0.476
A-427 |  | 1.2 | 1.1 | 1.11 | 0.959 | 0.8 | 0.612 | 0.607 | 0.937 | 1.01 | 0.908 | 0.524 | 0.469 | 0.408 | 0.722 | 0.787 | 0.866 | 0.721 | 0.783
NCI-H2347 | 1.36 | 0.838 | 1.02 | 1.03 | 0.833 | 0.311 | 0.349 | 0.279 | 0.685 | 0.707 | 0.594 | 0.461 | 0.416 | 0.384 | 0.311 | 0.285 | 0.297 | 0.268 | 0.357
NCI-H1355 | 0.954 | 1.03 | 1.04 | 1.02 | 0.981 | 0.7 | 0.642 | 0.64 | 1.02 | 1.03 | 1.05 | 0.44 | 0.38 | 0.378 | 0.414 | 0.481 | 0.47 | 0.428 | 0.433
NCI-H358 | 0.755 | 0.721 | 0.747 | 0.683 | 0.816 | 0.15 | 0.109 | 0.127 | 0.481 | 0.493 | 0.136 | 0.669 | 0.464 | 0.105 | 0.127 | 0.127 | 0.133 | 0.138 | 0.15
PC-3 [JPC-3] | 1.08 | 1.1 | 1.12 | 1.08 | 1.16 | 0.94 | 1.05 | 1.02 | 0.985 | 1.05 | 0.916 | 0.763 | 0.835 | 0.737 | 0.701 | 0.776 | 0.715 | 0.71 | 0.775
NCI-H2228 | 1.05 | 0.974 | 0.889 | 0.97 | 0.972 | 0.568 | 0.542 | 0.405 | 0.519 | 0.561 | 0.27 | 0.575 | 0.483 | 0.317 | 0.559 | 0.593 | 0.548 | 0.572 | 0.553
HOP-62 | 1.19 | 1.16 | 0.966 | 1.01 | 1.04 | 0.72 | 0.65 | 0.763 | 0.869 | 1.02 | 1.03 | 0.868 | 0.751 | 0.699 | 0.395 | 0.378 | 0.378 | 0.368 | 0.336
HARA | 0.976 | 0.991 | 0.889 | 0.961 | 0.974 | 0.3 | 0.188 | 0.237 | 0.922 | 0.817 | 0.922 | 0.57 | 0.479 | 0.234 | 0.792 | 0.771 | 0.586 | 0.659 | 0.919
